Data taken from paper PMC4348036, “Structural and Functional Investigation of Flavin Binding Center of the NqrC Subunit of Sodium-Translocating NADH:Quinone Oxidoreductase from Vibrio harveyi” (PLoS ONE, 2015).

Target: T1, holoNqrC' (NqrC subunit of Na+-translocating NADH:quinone oxidoreductase, soluble flavin-binding domain) (Vibrio harveyi, UniProt K5TWQ4)
T1 construct: soluble truncated NqrC without N-terminal transmembrane helix, residues 33-261, C-terminal 6xHis tag; E. coli, co-expressed with flavin transferase ApbE (plasmids pMshC3 + pdhis3); model covers residues 36-261
Experiment: X-ray crystallography, […] Å
Conditions: covalent; phosphoester bond to Thr229, attached in vivo by flavin transferase ApbE; pH 6.8

T1 sequence (K5TWQ4 33-261): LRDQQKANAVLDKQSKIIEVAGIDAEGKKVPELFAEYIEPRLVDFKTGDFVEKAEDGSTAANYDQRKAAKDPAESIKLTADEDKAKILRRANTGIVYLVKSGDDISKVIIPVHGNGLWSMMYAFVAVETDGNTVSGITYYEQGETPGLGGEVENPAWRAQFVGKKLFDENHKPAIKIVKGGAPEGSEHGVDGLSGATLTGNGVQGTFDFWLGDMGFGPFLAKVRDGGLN

Cc1cc2nc3c(=O)[nH]c(=O)nc-3n(C[C@H](O)[C@H](O)[C@H](O)COP(=O)(O)O)c2cc1C [FMN]
X-ray crystallography, 1.56 Å: The electron density of Thr229 side chain unambiguously demonstrates its flavinylation.
